Reference: patent publication US9271936B2, “Method for forming mesoporous silica nanoparticles, mesoporous silica nanoparticles, and applications thereof” (UNIVERSITY OF MARYLAND, priority 2008, dated 2016)

Legend:
[1] = cited from earlier work
[2] = Loading (uptake) of target material into MSN, UV-Vis spectroscopy; format: physicochemical
[3] = Release of target material from MSN, UV-Vis spectroscopy; settings: after subsequent pH decrease to approximately pH 5.0

COc1cccc2c1C(=O)c1c(O)c3c(c(O)c1C2=O)C[C@@](O)(C(=O)CO)C[C@@H]3O[C@H]1C[C@H](N)[C@H](O)[C@H](C)O1 [doxorubicin]
pKa [1]: ~7 | uptake into MSN [2]: approximately 3 ug/mg MSN | amount released per mg of MSN at equilibrium [3]: about 7.5 ug per mg of MSN
